Reference: article PMC4505424, “A Novel Mechanism for Binding of Galactose-terminated Glycans by the C-type Carbohydrate Recognition Domain in Blood Dendritic Cell Antigen 2” (The Journal of Biological Chemistry, 2015)

Experiments:
[1] = target: T1, BDCA-2 CRD (blood dendritic cell antigen 2) (Homo sapiens, UniProt Q8WTT0); assay: solid-phase competition with […]-Man-BSA on immobilised CRD; type: binding; conditions: half-maximal inhibition, Ca2+-dependent
T1 construct: gene CLEC4C; extracellular C-type carbohydrate recognition domain; expected mass of CRD 17,100; monomer
T1 sequence (Q8WTT0 67-213): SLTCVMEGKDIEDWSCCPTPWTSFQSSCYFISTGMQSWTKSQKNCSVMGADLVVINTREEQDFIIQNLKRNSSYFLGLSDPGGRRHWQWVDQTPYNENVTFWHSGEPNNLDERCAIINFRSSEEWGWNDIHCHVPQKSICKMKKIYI

[2] = target: T1, BDCA-2 CRD (blood dendritic cell antigen 2); assay: as above; type: binding; conditions: half-maximal inhibition; Ca2+-dependent

| Compound | Ki [1] | KI relative to KI for α-methyl mannoside [2] | also measured |
| --- | --- | --- | --- |
| CC(=O)N[C@H]1[C@H](O[C@@H]2C(O)O[C@H](CO)[C@@H](O)[C@@H]2O)O[C@H](CO)[C@@H](O)[C@@H]1O (some centres unmarked) [GlcNAcβ1–2Man] | 92 ± 12 µM |  |  |
| CO[C@H]1O[C@H](CO)[C@H](O)[C@H](O)[C@H]1O [galactose (α-methyl glycoside)] |  | Comparison of mannose and galactose as competing ligands confirmed the affinity chromatography results |  |
| CC(=O)N[C@H]1[C@H](O[C@@H]2C(O)O[C@H](CO)[C@@H](O)[C@@H]2O)O[C@H](CO)[C@@H](O[C@@H]2O[C@H](CO)[C@H](O)[C@H](O)[C@H]2O)[C@@H]1O (some centres unmarked) [Galβ1–4GlcNAcβ1–2Man] |  |  | Ki ([1]; extended site, mannose at Ca2+): 9.2 ± 1.4 µM |
| CO[C@H]1O[C@H](CO)[C@@H](O)[C@H](O)[C@H]1O [glucose (α-methyl glycoside)] |  | including glucose and GlcNAc, as well as L-fucose, also compete for binding |  |
| CO[C@H]1O[C@H](CO)[C@@H](O)[C@H](O)[C@H]1NC(C)=O [GlcNAc (α-methyl glycoside)] |  | including glucose and GlcNAc, as well as L-fucose, also compete for binding |  |
| CC(=O)N[C@H]1[C@H](O[C@H]2[C@H](O)[C@@H](NC(C)=O)C(O)O[C@@H]2CO)O[C@H](CO)[C@@H](O[C@@H]2O[C@H](CO[C@H]3O[C@H](CO)[C@@H](O)[C@H](O)[C@@H]3O[C@@H]3O[C@H](CO)[C@@H](O[C@@H]4O[C@H](CO[C@]5(C(=O)O)C[C@H](O)[C@@H](NC(C)=O)[C@H]([C@H](O)[C@H](O)CO)O5)[C@H](O)[C@H](O)[C@H]4O)[C@H](O)[C@H]3NC(C)=O)[C@@H](O)[C@H](O[C@H]3O[C@H](CO)[C@@H](O)[C@H](O)[C@@H]3O[C@@H]3O[C@H](CO)[C@@H](O[C@@H]4O[C@H](CO[C@]5(C(=O)O)C[C@H](O)[C@@H](NC(C)=O)[C@H]([C@H](O)[C@H](O)CO)O5)[C@H](O)[C@H](O)[C@H]4O)[C@H](O)[C@H]3NC(C)=O)[C@@H]2O)[C@@H]1O (some centres unmarked) [disialylated oligosaccharide] | 320 ± 20 µM |  |  |
| CO[C@@H]1O[C@@H](C)[C@@H](O)[C@@H](O)[C@@H]1O [L-fucose (α-methyl glycoside)] |  | including glucose and GlcNAc, as well as L-fucose, also compete for binding |  |
| CC(=O)N[C@H]1[C@H](O[C@H]2[C@H](O)[C@@H](NC(C)=O)C(O)O[C@@H]2CO)O[C@H](CO)[C@@H](O[C@@H]2O[C@H](CO[C@H]3O[C@H](CO)[C@@H](O)[C@H](O)[C@@H]3O[C@@H]3O[C@H](CO)[C@@H](O[C@@H]4O[C@H](CO)[C@H](O)[C@H](O)[C@H]4O)[C@H](O)[C@H]3NC(C)=O)[C@@H](O)[C@H](O[C@H]3O[C@H](CO)[C@@H](O)[C@H](O)[C@@H]3O[C@@H]3O[C@H](CO)[C@@H](O[C@@H]4O[C@H](CO)[C@H](O)[C@H](O)[C@H]4O)[C@H](O)[C@H]3NC(C)=O)[C@@H]2O)[C@@H]1O (some centres unmarked) [asialo biantennary glycan] | 0.46 ± 0.01 µM |  |  |
